Row | melting point [°C] | SMILES
1 | 154 to 157 | COc1ccc(N2CCN(CCN3CCC(c4noc5cc(F)ccc45)CC3)C2=O)cc1
2 | 91 to 92 | COC(OC)c1ccc2c(c1)C(C)(C)C(=O)CC2(C)C
3 | 192 | O=C(NC(Cc1ccccc1)C(=O)O)OCc1cc2cc(-c3cncnc3)ccc2o1 (stereo not drawn)
4 | 129 to 130 | C=C1N(C)C(=O)OC12CCN(C(=O)NCCCC)CC2
5 | 80 to 82 | Cc1ccc(C(O)C(=O)c2ccc(Br)cc2)cc1 (stereo not drawn)
6 | 133 to 135 | CCCCCCCCCCOS(=O)(=O)NC(=O)Nc1c(C(C)C)cccc1C(C)C
7 | 130 to 132 | COc1ccccc1NS(=O)(=O)c1cccc([N+](=O)[O-])c1
8 | 174 to 180 | Cc1cc(N2CCOCC2)c2cccc(OCc3c(Cl)ccc(-n4cccc4CNC(=O)C=Cc4ccc(C(=O)O)cc4)c3Cl)c2n1
9 | 198 to 199 | CCN(CC)c1ccc2nc3c4ccccc4c(=Nc4cccnc4)cc-3oc2c1
10 | 104 to 113 | CS(=O)(=O)Nc1cc([C@@H](O)CNC2CCN(c3ccc(NC(=O)c4ccc5c(c4)OCO5)cc3)CC2)ccc1O
11 | 71 to 72 | COc1cc(Br)c(C(=O)c2ccccc2)cc1OC
12 | 75 to 77 | CS(=O)(=O)Oc1cc(NN)c(F)cc1Cl
13 | 213 to 214 | C=C(F)c1cc(O)cc2nc(-c3ccc(O)c(F)c3)oc12
14 | 247 to 249 | CCOC(=O)c1cn2c(n1)c(OCC)nc1cc(Br)c(Br)cc12
15 | 154 to 155 | COC(=O)c1cc2ccc(N3CCOCC3)cc2c2c1C=CC(c1ccc(OC)cc1)(c1ccc(OC)cc1)O2
16 | 186 | NC(=S)NCCN1CCC(Nc2nc3ccccc3n2Cc2ccc(F)cc2)CC1
17 | 198 | O=C(CCCCCCOc1ccc2c(c1)[nH]c1ccccc12)NO
18 | 98 to 99 | COC(=O)C1=Cc2cc(Br)cnc2N2CCCC2CC1 (stereo not drawn)

Row | melting point [°C] | SMILES
19 | 80 to 84 | COC(CN(C)C(=O)Nc1cc(C(C)(C)C)on1)OC
20 | 226 to 227 | COc1cc2onc(N)c2cc1Br
21 | 122 to 125 | COC(=O)N[C@@H](C(=O)O)c1ccccc1
22 | 259 to 260 | CC(C)(C)CC(NC(=O)c1ccccc1)Nc1c(Nc2cccnc2Cl)c(=O)c1=O (stereo not drawn)
23 | 116 | CCOC(=O)c1cc2ccc3c(c4ccccc4n3CC)c2n1C
24 | 124 to 125 | CCOC(=O)c1cn(Cc2ccc(OCc3ccccc3)cc2)nc1OCc1ccc(OCc2ccccc2)cc1
25 | 208 to 210 | O=C(Nc1cccc(-c2cnc(-c3cccc(NC(=O)c4ccccn4)c3)[nH]2)c1)c1ccccn1
26 | 167 to 168 | COc1ccc(CCNC(=O)c2nc(N)sc2-c2ccncc2)cc1OC
27 | 116 to 118 | CC(=O)Oc1ccc(C(C[N+](=O)[O-])SC(=S)N(C)C)cc1 (stereo not drawn)
28 | 86 to 87 | C=C(C)OC(=O)N1C(=O)[C@H](C)Nc2nc(Cl)ccc21
29 | 136 to 146 | CCC1(Br)Cc2c(Cl)ccc(OCC(=O)O)c2C1=O (stereo not drawn)
30 | 222 to 226 | Cn1c(=O)c(-c2ccc(Cl)cc2Cl)cc2c3cc(-c4nc(CN5CCCC5)cs4)ccc3n(C)c21
31 | 143 to 145 | O=C(O)C(CC1CCCC1)c1ccc(S(=O)(=O)C(F)(F)F)cc1 (stereo not drawn)
32 | 189 to 191 | CCNC(=O)NCCCNn1c(COCC)nc2c(N)nc3c(c21)CCCC3
33 | 180 | CCc1[nH]n(C2CCCC2)c2nc(-c3cccc(OCCN4CCCCC4)c3)nc(=O)c1-2
34 | 172 to 175 | COc1ccccc1-c1cc(N)c(S(N)(=O)=O)cc1C
35 | 65 to 66 | CCCCCCCCCCCCCCCCCC(=O)Oc1cc(OC)cc(OC)c1C(=O)C=Cc1ccc(OC)cc1
36 | 91 to 104 | COc1ccc(OC(F)(F)F)cc1[C@H]1CO[C@]2(CCCN[C@H]2c2ccccc2)C1

Row | SMILES | melting point [°C]
37 | COc1cc(C(=O)Nc2c(Cl)cc3cn[nH]c3c2C(=O)NC2(C)CSC2)n(-c2ncccc2Cl)n1 | 162 to 165
38 | CN1CCC2(CC1)CNc1cc(Cl)ccc12 | 172 to 173

From a melting point compilation (Tetko et al.; mined from patent text by program, amines drawn as free bases though some values may be those of a salt)
